Assay results: PubChem BioAssay (NCI)
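All cell lines were grown in 96-well plates and treated with compound for 48 hours. GI50: concentration for 50% inhibition of growth. TGI marks complete inhibition of growth.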

Experiments:
Test in all cases: inhibition of tumour cell growth, NCI panel, 48 h
T-47D breast = system: T-47D breast
MDA-MB-435 = system: MDA-MB-435
BT-549 breast = system: BT-549 breast

COc1c2ccoc2c(/C=C/C=O)c2oc(-c3ccccc3)cc(=O)c12
GI50 (T-47D breast): 2.14 µM | TGI (T-47D breast): 6.25 µM | GI50 (MDA-MB-435): 4.83 µM | TGI (MDA-MB-435): > 100 µM | GI50 (BT-549 breast): 2.88 µM | TGI (BT-549 breast): 13.1 µM

CN(C)c1ccc(-c2cc(-c3ccc(Nc4nc(Nc5ccc(Cl)cc5)nc(Nc5ccc(Cl)cc5)n4)cc3)no2)cc1
GI50 (T-47D breast): 3.69 µM | TGI (T-47D breast): 78.5 µM | GI50 (MDA-MB-435): 3.33 µM | TGI (MDA-MB-435): 32.3 µM | GI50 (BT-549 breast): 9.07 µM | TGI (BT-549 breast): 48.9 µM

C[C@@H](CS(C)(=O)=O)Nc1ncc2cc(Oc3ccc(F)cc3F)c(=O)n(C)c2n1
GI50 (T-47D breast): > 25 µM | TGI (T-47D breast): > 25 µM | GI50 (MDA-MB-435): > 25 µM | TGI (MDA-MB-435): > 25 µM | GI50 (BT-549 breast): > 25 µM | TGI (BT-549 breast): > 25 µM

O=C(CCl)N1c2ccccc2Oc2ccc3ccccc3c21
GI50 (T-47D breast): 1.69 µM | TGI (T-47D breast): 4.15 µM | GI50 (MDA-MB-435): 0.577 µM | TGI (MDA-MB-435): 1.88 µM | GI50 (BT-549 breast): 1.79 µM | TGI (BT-549 breast): 3.56 µM

COc1cc2nc(-c3ccc(C(F)(F)F)cc3)cc(OCCCN3CCC(O)CC3)c2cc1OC
GI50 (T-47D breast): 2.97 µM | TGI (T-47D breast): 19.1 µM | GI50 (MDA-MB-435): 2.76 µM | TGI (MDA-MB-435): 9.31 µM | GI50 (BT-549 breast): 6.59 µM | TGI (BT-549 breast): 22.1 µM

COc1cc(C(=O)/C=C/c2sc(Cl)nc2Cl)cc(OC)c1OC
GI50 (T-47D breast): 2.14 µM | TGI (T-47D breast): 5.35 µM | GI50 (MDA-MB-435): 2 µM | TGI (MDA-MB-435): 4.11 µM | GI50 (BT-549 breast): 1.87 µM | TGI (BT-549 breast): 3.6 µM

NC(CSC(c1ccccc1)(c1ccccc1)c1ccc2c(c1)OCO2)C(=O)O (centres undefined)
GI50 (T-47D breast): 0.597 µM | TGI (T-47D breast): > 67.9 µM | GI50 (BT-549 breast): 0.559 µM | TGI (BT-549 breast): 75.9 µM

CC1=C(C#N)C23C(=O)c4ccccc4C(O)=C2C(=O)C=CC3(O)N1Cc1ccccc1 (centres undefined)
GI50 (T-47D breast): 25.8 µM | TGI (T-47D breast): 71.6 µM | GI50 (MDA-MB-435): 38.6 µM | TGI (MDA-MB-435): > 100 µM | GI50 (BT-549 breast): 36.2 µM | TGI (BT-549 breast): > 100 µM

Fc1ccc(Nc2ncnc3ccc(-c4cnc5[nH]ccc5c4)cc23)cc1Cl
GI50 (T-47D breast): 0.592 µM | TGI (T-47D breast): 13.9 µM | GI50 (MDA-MB-435): 8.66 µM | TGI (MDA-MB-435): > 80.1 µM | GI50 (BT-549 breast): 3.11 µM | TGI (BT-549 breast): > 27.9 µM

CCOc1ccccc1-n1c(CN2CCN(C(=O)COc3ccc(CNCCCCCCN4C5CCCC4CC(OC(=O)Nc4cc(C)ccc4OC)C5)cc3)CC2)nc2ccccc2c1=O (centres undefined)
GI50 (T-47D breast): 1.78 µM | TGI (T-47D breast): 3.88 µM | GI50 (MDA-MB-435): 0.811 µM | TGI (MDA-MB-435): 2.12 µM | GI50 (BT-549 breast): 1.72 µM | TGI (BT-549 breast): 3.26 µM

COC(=O)Nc1nc2ccc(S(=O)c3ccccc3)cc2[nH]1 (centres undefined)
GI50 (T-47D breast): 4.38 µM | TGI (T-47D breast): > 100 µM | GI50 (MDA-MB-435): 1.26 µM | TGI (MDA-MB-435): 3.94 µM | GI50 (BT-549 breast): 3.98 µM | TGI (BT-549 breast): > 100 µM

CNC(=O)c1ccccc1Nc1nc(Nc2ccc(N3CCOCC3)cc2OC)ncc1Cl
GI50 (T-47D breast): 1.28 µM | TGI (T-47D breast): > 36.1 µM | GI50 (MDA-MB-435): 0.629 µM | TGI (MDA-MB-435): > 66.4 µM | GI50 (BT-549 breast): 2.58 µM | TGI (BT-549 breast): > 39.1 µM

CC(=O)[O][Hg][c]1c(N)c(C)cc(C)c1F
GI50 (T-47D breast): 1.39 µM | TGI (T-47D breast): 4.47 µM | GI50 (MDA-MB-435): 1.48 µM | TGI (MDA-MB-435): 2.96 µM | GI50 (BT-549 breast): 2.22 µM | TGI (BT-549 breast): 5.29 µM

COc1ccc(-c2cc(-c3ccc(Nc4nc(Nc5ccccc5)nc(Nc5ccc(Cl)cc5)n4)cc3)nc(N)c2C#N)cc1
GI50 (T-47D breast): 0.733 µM | TGI (T-47D breast): 1.65 µM | GI50 (MDA-MB-435): 0.962 µM | TGI (MDA-MB-435): 2.16 µM | GI50 (BT-549 breast): 0.822 µM | TGI (BT-549 breast): 2.49 µM

CSc1ccccc1C#C/C=C\C#Cc1ccccc1N1CCCC1=O
TGI (T-47D breast): > 20.3 µM | TGI (MDA-MB-435): > 13.9 µM | TGI (BT-549 breast): > 45.4 µM

O=C(CN1CCN(c2cc3c(cc2F)c(=O)c(C(=O)N/N=C/c2ccccc2O)cn3C2CC2)CC1)N/N=C\c1ccccc1O
GI50 (T-47D breast): 0.796 µM | TGI (T-47D breast): > 100 µM | GI50 (MDA-MB-435): 0.99 µM | TGI (MDA-MB-435): > 100 µM | GI50 (BT-549 breast): 1.51 µM | TGI (BT-549 breast): > 100 µM

Cc1cc(=O)n2[nH]c(-c3ccc(C(C)(C)C)cc3)cc2n1
GI50 (T-47D breast): 4.43 µM | TGI (T-47D breast): 79.8 µM | GI50 (MDA-MB-435): 5.44 µM | TGI (MDA-MB-435): > 100 µM | GI50 (BT-549 breast): 17.4 µM | TGI (BT-549 breast): > 100 µM

O=C(NCCNc1nccc(-c2c(-c3cccc(O)c3)nc3sccn23)n1)c1ccccc1O
GI50 (T-47D breast): 3.65 µM | TGI (T-47D breast): 20.5 µM | GI50 (MDA-MB-435): 0.491 µM | TGI (MDA-MB-435): 12.1 µM | GI50 (BT-549 breast): 4.74 µM | TGI (BT-549 breast): 34.9 µM

CCCCCCCC(=O)SCC/C=C/[C@@H]1CC(=O)NCc2cccc(n2)C2=N[C@@](C)(CS2)C(=O)N[C@@H](C(C)C)C(=O)N1
GI50 (T-47D breast): 0.412 µM | TGI (T-47D breast): 3 µM | GI50 (MDA-MB-435): 0.739 µM | TGI (MDA-MB-435): > 33.3 µM | GI50 (BT-549 breast): 5.04 µM | TGI (BT-549 breast): > 33.3 µM

COc1ccc2c(c1)C(=O)/C(=C/c1ccc(OCC(=O)Nc3nccs3)cc1)O2
GI50 (T-47D breast): 7.05 µM | TGI (T-47D breast): 31.9 µM | GI50 (MDA-MB-435): 10.7 µM | TGI (MDA-MB-435): 46.8 µM | GI50 (BT-549 breast): 3.86 µM | TGI (BT-549 breast): 15.3 µM

C=C(CNCCO)[C@@H]1CC[C@]2(CO)CC[C@]3(C)[C@H](CC[C@@H]4[C@@]5(C)CCC(N)C(C)(C)[C@@H]5CC[C@]43C)[C@@H]12 (some centres undefined)
GI50 (T-47D breast): 2.07 µM | TGI (T-47D breast): 3.95 µM | GI50 (MDA-MB-435): 1.72 µM | TGI (MDA-MB-435): 3.3 µM | GI50 (BT-549 breast): 2.07 µM | TGI (BT-549 breast): 4.9 µM

COc1ccc(C2=CSc3cc(Cl)c(C)cc3S(=O)(=O)N2C(C)=O)cc1
GI50 (MDA-MB-435): 28.6 µM | TGI (MDA-MB-435): 87.8 µM | GI50 (BT-549 breast): 29.9 µM | TGI (BT-549 breast): > 100 µM

CNC(=O)c1cc(Oc2ccc3nc(NC(=O)Nc4ccc(Cl)c(C(F)(F)F)c4)sc3c2)ccn1
GI50 (T-47D breast): 0.723 µM | TGI (T-47D breast): 3.65 µM | GI50 (BT-549 breast): 2.64 µM | TGI (BT-549 breast): 9.73 µM
